Measurements as given in US20240391875A1, “ISOQUINOLINONES AND QUINOLINONES AS MODULATORS OF POLRMT” (Pretzel Therapeutics, Inc., priority 2021, published 2024).

target: POLRMT (Homo sapiens, UniProt O00411); experiment: homogeneous TR-FRET assay of mitochondrial transcription (inhibition of POLRMT); type: biochemical; conditions: isoquinolinone compounds (Table 1)
Description: The inhibitory activity of the compounds of the present invention against POLRMT were determined by assays based on Bergbrede, T., et al., “An adaptable high-throughput technology enabling the identification of specific transcription modulators,” SLAC Discov., 22, 378-386 (2017).
The ability of some compounds of the present invention to inhibit POLRMT were determined in a homogeneous TR-FRET Assay using high-throughput screening in a 384-well plate format. This method is used to monitor the activity of mitochondrial transcription through measurement of its product, a 407 bp long RNA transcript. Detection of the product is facilitated by hybridization of two DNA-oligonucleotide probes to specific and adjacent sequences within the RNA product sequence. Upon annealing of the probes, two fluorophores are coupled directly to an acceptor nucleotide probe (ATTO647, 5′), or introduced via a coupled streptavidin with a biotinylated donor nucleotide probe (Europium cryptate) that is brought into sufficient proximity to serve as a fluorescence-donor-acceptor pair. Thus, a FRET signal at 665 nm is generated upon excitation at 340 nm.
Proteins used as transcription factors (POLRMT: NP_005026.3, TFAM: NP_003192.1, TFB2M: NP_071761.1) are diluted from their stocks to working concentrations of 1 μM, 20 μM and 4 μM respectively, in a dilution buffer containing 20 mM Tris-HCl (pH 8.0), 200 mM NaCl, 10% (v/v) glycerol, 1 mM Dithiothreitol (DTT), 0.5 mM EDTA.
DNA template is a pUC18 plasmid with the mitochondrial light strand promotor sequence (1-477) cloned between HindIII and BamHI sites. The DNA template is restriction linearized proximal to the promotor 3′-end (pUC-LSP).
The reaction mixture (10 uL) containing 7.5 nM POLRMT, 15 nM of TFB2M, 30 nM of TFAM, 0.5 nM of DNA template and 500 μM nucleotide triphosphate mix (NTPs) in a reaction buffer (containing 10 mM Tris-HCl (pH 7.5), 10 mM MgCl2, 40 mM NaCl, 10 mM DTT, 0.005% (w/v) Tween-20, 160 units/ml Rnase inhibitor and 0.1 mg/mL BSA) are dispensed to compounds in microplates, using a Thermo Multidrop® dispenser, and incubated at 37° C. in a VWR INCU-Line incubator for 60 minutes after mixing. No nucleotide triphosphate mix is added to negative control samples. Microplates with compounds to be tested in the assay are prepared from 10 mM compound stocks in 100% DMSO, equal amounts of DMSO without any compound are added to positive control and negative control samples.
During the incubation, a mix of the detection reagents is prepared in a buffer such that the enzymatic reaction is terminated due to chelating of Mg-ions and increased ionic strength, containing 50 mM Tris-HCl (pH 7.5), 700 mM NaCl, 20 mM EDTA, and 0.010% (w/v) Tween-20. Europium-streptavidin is pre-incubated with a 200-fold molar excess of a random sequence oligonucleotide to block unspecific binding of oligo, for two hours at ambient temperature in the dark. Afterwards, the blocked Europium-streptavidin is kept on ice until use.
At the end of the enzymatic reaction time, 5 μL detection oligo mix in the detection buffer is added, and assay plates are mixed and kept at ambient temperature for one hour, protected from light. The concentration of the Acceptor nucleotide oligo (e.g., ATTO647N-5′-[…]-3′) and Donor nucleotide oligo (e.g., bio-5′-AACACATCTCT(-bio)GCCAAACCCCA-bio-3′) in each assay well is 1 nM, and 3 nM, respectively.
After incubation with oligo mix, 5 μL of pre-blocked Europium-streptavidin reagent is dispensed to each assay well, assay plates are again mixed and kept at ambient temperature for one hour, protected from light.
The generated signal is measured with BMG Pherastar microtiter plate reader with a TRF light unit, using excitation at 340 nm, an integration time of 200 μs, and a delay time of 100 μs, before detection at 620 nm and 665 nm. The ratio of donor- and acceptor-fluorescence is used as a measure of the generated transcript product (i.e. enzymatic activity).

Sequence of POLRMT (O00411 42-1230): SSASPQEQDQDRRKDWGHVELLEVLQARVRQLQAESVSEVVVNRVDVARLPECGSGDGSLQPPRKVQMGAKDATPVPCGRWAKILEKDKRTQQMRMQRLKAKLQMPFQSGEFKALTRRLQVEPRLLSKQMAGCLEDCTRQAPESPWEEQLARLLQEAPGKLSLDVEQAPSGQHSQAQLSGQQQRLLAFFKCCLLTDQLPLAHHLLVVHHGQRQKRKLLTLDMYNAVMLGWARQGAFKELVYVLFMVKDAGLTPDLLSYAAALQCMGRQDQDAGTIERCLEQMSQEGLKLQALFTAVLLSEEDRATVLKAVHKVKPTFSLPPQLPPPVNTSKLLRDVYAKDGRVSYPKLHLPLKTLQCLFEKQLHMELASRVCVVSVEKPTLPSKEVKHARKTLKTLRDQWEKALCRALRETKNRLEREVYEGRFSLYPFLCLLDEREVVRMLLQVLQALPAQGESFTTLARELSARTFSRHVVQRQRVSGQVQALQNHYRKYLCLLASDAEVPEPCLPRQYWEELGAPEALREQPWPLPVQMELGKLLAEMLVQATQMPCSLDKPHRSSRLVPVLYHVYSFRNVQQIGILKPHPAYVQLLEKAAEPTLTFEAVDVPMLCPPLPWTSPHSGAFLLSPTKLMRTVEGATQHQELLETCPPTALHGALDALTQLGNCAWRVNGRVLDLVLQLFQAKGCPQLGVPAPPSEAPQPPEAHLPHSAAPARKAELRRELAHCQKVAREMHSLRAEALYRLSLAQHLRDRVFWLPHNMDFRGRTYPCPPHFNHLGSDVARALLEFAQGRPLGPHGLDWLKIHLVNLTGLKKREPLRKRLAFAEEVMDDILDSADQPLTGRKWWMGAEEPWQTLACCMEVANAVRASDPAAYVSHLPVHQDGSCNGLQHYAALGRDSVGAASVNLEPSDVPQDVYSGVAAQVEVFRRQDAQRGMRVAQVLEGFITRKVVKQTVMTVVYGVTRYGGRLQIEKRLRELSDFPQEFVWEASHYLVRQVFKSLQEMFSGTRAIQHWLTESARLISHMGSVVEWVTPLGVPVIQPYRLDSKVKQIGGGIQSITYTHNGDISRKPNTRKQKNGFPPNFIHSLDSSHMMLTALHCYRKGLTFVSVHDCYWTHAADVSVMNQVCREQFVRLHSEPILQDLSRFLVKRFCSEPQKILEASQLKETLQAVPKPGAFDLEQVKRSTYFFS

Compound	IC50
CC(C#N)Oc1ccc2c(-c3ccc(F)cc3Cl)c[nH]c(=O)c2c1 (single isomer, unassigned) [Example 49, 2-((4-(2-chloro-4-fluorophenyl)-1-oxo-1,2-dihydroisoquinolin-7-yl)oxy)propanenitrile]	5000 nM
CC(C#N)Oc1ccc2c(-c3ccc(F)cc3Cl)c[nH]c(=O)c2c1 (single isomer, unassigned) [Example 50, 2-((4-(2-chloro-4-fluorophenyl)-1-oxo-1,2-dihydroisoquinolin-7-yl)oxy)propanenitrile]	600 nM
COCC(Oc1ccc2c(-c3ccccc3C)c[nH]c(=O)c2c1)C(N)=O (single isomer, unassigned) [Example 52]	> 100000 nM
COCC(Oc1ccc2c(-c3ccccc3C)c[nH]c(=O)c2c1)C(=O)N(C)C (single isomer, unassigned) [Example 54]	> 100000 nM
COCC(Oc1ccc2c(-c3ccccc3C)c[nH]c(=O)c2c1)C(=O)N(C)C (single isomer, unassigned) [Example 55, 3-methoxy-N,N-dimethyl-2-((1-oxo-4-(o-tolyl)-1,2-dihydroisoquinolin-7-yl)oxy)propenamide]	2000 nM
CC(C#N)Oc1ccc2c(-c3ccccc3Cl)c[nH]c(=O)c2c1 (single isomer, unassigned) [Example 57, 2-((4-(2-chlorophenyl)-1-oxo-1,2-dihydroisoquinolin-7-yl)oxy)propanenitrile]	300 nM
CC(C#N)Oc1ccc2c(-c3ccccc3Cl)c[nH]c(=O)c2c1 (single isomer, unassigned) [Example 58, 2-((4-(2-chlorophenyl)-1-oxo-1,2-dihydroisoquinolin-7-yl)oxy)propanenitrile]	2000 nM
C[C@@H](Oc1ccc2c(-c3ccc(F)cc3Cl)c[nH]c(=O)c2c1)C(=O)N1CCCC(S(C)(=O)=O)C1 (single isomer, unassigned) [Example 95]	1000 nM
C[C@@H](Oc1ccc2c(-c3ccc(F)cc3Cl)c[nH]c(=O)c2c1)C(=O)N1CCCC(S(C)(=O)=O)C1 (single isomer, unassigned) [Example 96]	2000 nM
Cc1ccccc1-c1c[nH]c(=O)c2cc(O[C@H](C)C(=O)N3CCCC(S(C)(=O)=O)C3)ccc12 (single isomer, unassigned) [Example 97]	300 nM
Cc1ccccc1-c1c[nH]c(=O)c2cc(O[C@H](C)C(=O)N3CCCC(S(C)(=O)=O)C3)ccc12 (single isomer, unassigned) [Example 98]	300 nM
C[C@H]1CN(C(=O)[C@@H](C)Oc2ccc3c(-c4ccc(F)cc4Cl)c[nH]c(=O)c3c2)C[C@H](C)O1 (single isomer, unassigned) [Example 124]	500 nM
C[C@H]1CN(C(=O)[C@@H](C)Oc2ccc3c(-c4ccc(F)cc4Cl)c[nH]c(=O)c3c2)C[C@H](C)O1 (single isomer, unassigned) [Example 125]	200 nM
COc1ccc2c(-c3ccc(F)cc3Cl)c[nH]c(=O)c2c1 [Example 1, 4-(2-chloro-4-fluorophenyl)-7-methoxyisoquinolin-1(2H)-one]	10000 nM
O=c1[nH]cc(-c2ccc(F)cc2Cl)c2ccc(O)cc12 [Example 2, 4-(2-chloro-4-fluorophenyl)-7-hydroxyisoquinolin-1(2H)-one]	> 100000 nM
CCC(C)Oc1ccc2c(-c3ccccc3C)c[nH]c(=O)c2c1 (centres unmarked) [Example 5, 7-(sec-butoxy)-4-(o-tolyl)isoquinolin-1(2H)-one]	200 nM
Cc1ccccc1-c1c[nH]c(=O)c2cc(OCC(C)C)ccc12 [Example 6, 7-isobutoxy-4-(o-tolyl)isoquinolin-1(2H)-one]	200 nM
CC(C)Oc1ccc2c(-c3ccc(F)cc3Cl)c[nH]c(=O)c2c1 [Example 7, 4-(2-chloro-4-fluorophenyl)-7-isopropoxyisoquinolin-1(2H)-one]	800 nM
Cc1ccccc1-c1c[nH]c(=O)c2cc(CO)ccc12 [Example 15, 7-(hydroxymethyl)-4-(o-tolyl)isoquinolin-1(2H)-one]	51000 nM
CC(=O)N1CC[C@@H](Oc2ccc3c(-c4ccccc4C)c[nH]c(=O)c3c2)C1 [Example 16, (R)-7-((1-acetylpyrrolidin-3-yl)oxy)-4-(o-tolyl)isoquinolin-1(2H)-one]	51000 nM

Further lines, results first:

IC50	Compound
200 nM	Cc1ccccc1-c1c[nH]c(=O)c2cc(OC(C)C#N)ccc12 (single isomer, unassigned) [Example 12, 2-((1-oxo-4-(o-tolyl)-1,2-dihydroisoquinolin-7-yl)oxy)propanenitrile]
900 nM	Cc1ccccc1-c1c[nH]c(=O)c2cc(OC(C)C#N)ccc12 (single isomer, unassigned) [Example 13, 2-((1-oxo-4-(o-tolyl)-1,2-dihydroisoquinolin-7-yl)oxy)propanenitrile]
1000 nM	COCC(C)Oc1ccc2c(-c3ccccc3C)c[nH]c(=O)c2c1 (single isomer, unassigned) [Example 26, 7-((1-methoxypropan-2-yl)oxy)-4-(o-tolyl)isoquinolin-1(2H)-one]
1000 nM	COCC(C)Oc1ccc2c(-c3ccccc3C)c[nH]c(=O)c2c1 (single isomer, unassigned) [Example 27, 7-((1-methoxypropan-2-yl)oxy)-4-(o-tolyl)isoquinolin-1(2H)-one]
13000 nM	COCC(Oc1ccc2c(-c3ccccc3C)c[nH]c(=O)c2c1)C(N)=O (single isomer, unassigned) [Example 53]
17000 nM	Cc1ccccc1-c1c[nH]c(=O)c2cc(OC(C)C(N)=O)ccc12 (single isomer, unassigned) [Example 72]
400 nM	Cc1ccccc1-c1c[nH]c(=O)c2cc(OC(C)C(N)=O)ccc12 (single isomer, unassigned) [Example 73]
4000 nM	COCC(C#N)Oc1ccc2c(-c3ccccc3C)c[nH]c(=O)c2c1 (single isomer, unassigned) [Example 75, 3-methoxy-2-((1-oxo-4-(o-tolyl)-1,2-dihydroisoquinolin-7-yl)oxy)propanenitrile]
200 nM	COCC(C#N)Oc1ccc2c(-c3ccccc3C)c[nH]c(=O)c2c1 (single isomer, unassigned) [Example 76, 3-methoxy-2-((1-oxo-4-(o-tolyl)-1,2-dihydroisoquinolin-7-yl)oxy)propanenitrile]
400 nM	Cc1ccccc1-c1c[nH]c(=O)c2cc(OC(C)C)ccc12 [Example 4, 7-isopropoxy-4-(o-tolyl)isoquinolin-1(2H)-one]
35000 nM	Cc1ccccc1-c1c[nH]c(=O)c2cc(OCC(=O)N(C)C)ccc12 [Example 8, N,N-dimethyl-2-((1-oxo-4-(o-tolyl)-1,2-dihydroisoquinolin-7-yl)oxy)acetamide]
3000 nM	COCCOc1ccc2c(-c3ccccc3C)c[nH]c(=O)c2c1 [Example 9, 7-(2-methoxyethoxy)-4-(o-tolyl)isoquinolin-1(2H)-one]
> 100000 nM	Cc1ccccc1-c1c[nH]c(=O)c2cc(OCCN(C)C)ccc12 [Example 10, 7-(2-(dimethylamino)ethoxy)-4-(o-tolyl)isoquinolin-1(2H)-one]

same assay, conditions: quinolinone compounds (Table 2)

IC50	Compound
9000 nM	Cc1ccccc1-c1cc(=O)[nH]c2cc(O[C@H](C)C(=O)N(C)C)ccc12 (single isomer, unassigned) [Example Q7]
> 100000 nM	Cc1ccccc1-c1cc(=O)[nH]c2cc(O[C@@H](C)C(=O)N(C)C)ccc12 (single isomer, unassigned) [Example Q8]
